Literature values as cited in patent publication US10543503B1, “Methods of delivery of encapsulated perfluorocarbon taggants” (Copilot Ventures Fund III LLC, priority 2011, dated 2020).

How the values were obtained:
[1] = tested on: benzphetamine-N-demethylase; settings: rats, following PFD treatment
[2] = tested on: cytochrome P-450 IA1 and IA1; settings: rats, following PFD treatment; enzymes induced by 3-methylcholanthrene-type inducers
cytochrome P-450 = settings: PFD given to rats; hepatic metabolizing enzymes
[3] = tested on: cytochrome P-450 IIA1 and IIA2 (a.k.a. cytochrome P450b and cytochrome P450e); settings: rats, following PFD treatment
cytochrome P450 IV = settings: rats, following PFD treatment; enzyme induced by fatty acids and perfluoronated fatty acids
aldrin-epoxidase = settings: rats, following PFD treatment

For `FC1(F)C(F)(F)C(F)(F)C2(F)C(F)(F)C(F)(F)C(F)(F)C(F)(F)C2(F)C1(F)F` (stereo not drawn) [PFD, perfluorodecalin], the “activity of benzphetamine-N-demethylase” value [1] is listed as “increased”, the “activities of cytochrome P-450 IA1 and IA1” value [2] is listed as “unaffected” and the “induction of cytochrome P-450” value (cytochrome P-450) is listed as “induce cytochrome P-450 in a manner similar to phenobarbital”. The “increase of activities of cytochrome P-450 IIA1 and IIA2” value [3] was “approximately two-fold”, the “activity of cytochrome P450 IV” value (cytochrome P450 IV) was “unaffected” and the activity of aldrin-epoxidase (aldrin-epoxidase) was “increased”.
